Experimental data as given in article PMC12122562, “Phase 1 studies of the indenoisoquinolines LMP776 and LMP744 in patients with solid tumors and lymphomas” (Cancer Chemotherapy and Pharmacology, 2025).
Entries after “also recorded” stand apart in the source; their conditions may differ. Like-named read-outs stand apart in the source and are kept apart here.

What was measured:
pKAP1 = test: qIF of paired tumor biopsies: nuclear pKAP1; assay type: in vivo, human; settings: 6 patients at MTD, C1D2
Excerpt: The LMP744 protocol collected pre-treatment (baseline) and on-treatment paired biopsies from patients in the expansion cohort. Core needle tumor biopsies (18-gauge) were collected and flash-frozen at point of collection per NCI SOPs (https://dctd.cancer.gov/ResearchResources/biomarkers/docs/par/SOP340507_Biopsy_Frozen.pdf) as described to preserve labile post-translational modifications such as phosphorylation. Biopsy pairs were thawed in formalin, fixed in paraffin embedded together with control tissues following NCI SOP340550 (https://dctd.cancer.gov/ResearchResources/biomarkers/DDR3/SOP340550_Biopsy_Section_Testis_Jejunum_Controls.pdf). TOP1 and TOP1cc were measured with a cocktail containing custom-conjugated rabbit monoclonal antibody anti-TOP1-DIG (Abcam, EPR5376 (2)) and mouse monoclonal antibody anti-TOP1cc (clone 1.1A [34, 35], EMD Millipore) that were detected with reporter secondary antibodies AlexaFluor-647 IgG fraction monoclonal mouse anti-digoxin (Jackson ImmunoResearch) and goat/anti-mouse AlexaFluor-488, respectively. Phosphorylated KAP1 (pKAP1, phosphorylated at S824) was measured using custom-conjugated pKAP1-pS824-DNP (Abcam, EPR5248) and detected with AlexaFluor-488 conjugated with anti-dinitrophenyl-KLH rabbit IgG Antibody Fraction (DNP-488, ThermoFisher). […]

[1] = Plasma pharmacokinetics of LMP776, non-compartmental; assay type: in vivo, human; settings: for half-life / AUC(0-inf) / AUC(0-t) / Cmax / Tmax: human, plasma, intravenous
Protocol: Blood was collected during cycle 1 in the LMP744 study on C1D1 at the end of infusion (EOI), then again at 0.25, 0.5, 1, 2, 4, and 6 h after EOI. Blood was also collected prior to infusion and at EOI on days 2–5 during cycle 1, then again at 1 week (168 h) after C1D1 EOI. Samples were collected in EDTA tubes with 2 mL of blood per sample. Samples were centrifuged and plasma was stored at − 70 °C. Samples were analyzed using a validated LC–MS or LC–MS/MS method for each IIQ as previously described. Plasma-time data were analyzed using WinNonlin (Pharsight, Mountain View, CA). AUC values were calculated by non-compartmental analysis and end-of-infusion concentrations were measured on days 1 and 5 of cycle 1. Sample collection and analysis of LMP776 pharmacokinetics were performed as previously described.

SMILES: COc1cc2c3c(n(CCCNCCO)c(=O)c2cc1OC)-c1cc2c(cc1C3=O)OCO2 [LMP744]
- Nuclear pKAP1 (pKAP1): increased only in patient 29

SMILES: COc1cc2c3c(n(CCCn4ccnc4)c(=O)c2cc1OC)-c1cc2c(cc1C3=O)OCO2 [LMP776]
- Cl ([1]; DL1, 1 mg/m2, n=1): 2.78 L/h/m2
- Vd ([1]; DL1, 1 mg/m2, n=1): 63.4 L/m2
- Vss ([1]; DL1, 1 mg/m2, n=1): 57.9 L/m2
- Cl ([1]; DL2, 2 mg/m2, n=7): 4.0 (1.1) L/h/m2
- Vd ([1]; DL2, 2 mg/m2, n=7): 58.4 L/m2
- Vss ([1]; DL2, 2 mg/m2, n=7): 54.7 L/m2
- Cl ([1]; DL3, 3 mg/m2, n=3): 2.7 (0.5) L/h/m2
- Vd ([1]; DL3, 3 mg/m2, n=3): 37.5 L/m2
- Vss ([1]; DL3, 3 mg/m2, n=3): 35.4 L/m2
- Cl ([1]; DL4, 4.5 mg/m2, n=3): 3.7 (1.2) L/h/m2
- Vd ([1]; DL4, 4.5 mg/m2, n=3): 49.7 L/m2
- Vss ([1]; DL4, 4.5 mg/m2, n=3): 44.0 L/m2
- Cl ([1]; DL5, 6.75 mg/m2, n=3): 3.8 (1.6) L/h/m2
- Vd ([1]; DL5, 6.75 mg/m2, n=3): 48.2 L/m2
- Vss ([1]; DL5, 6.75 mg/m2, n=3): 41.7 L/m2
- Cl ([1]; DL6, 9 mg/m2, n=2): 3.4 (1.5) L/h/m2
- Vd ([1]; DL6, 9 mg/m2, n=2): 62.7 L/m2
- Vss ([1]; DL6, 9 mg/m2, n=2): 55.8 L/m2
- Cl ([1]; DL7 (MTD), 12 mg/m2, n=6): 3.2 (1.5) L/h/m2
- Vd ([1]; DL7 (MTD), 12 mg/m2, n=6): 40.7 L/m2
- Vss ([1]; DL7 (MTD), 12 mg/m2, n=6): 38.5 L/m2
- Cl ([1]; DL8, 16 mg/m2, n=7): 3.0 (1.4) L/h/m2
- Vd ([1]; DL8, 16 mg/m2, n=7): 39.5 L/m2
- Vss ([1]; DL8, 16 mg/m2, n=7): 37.1 L/m2
- half-life ([1]; 1 mg/m2, DL1, 1 mg/m2, n=1, read-out: t1/2 (converted)): 38.6 h
- half-life ([1]; 2 mg/m2, DL2, 2 mg/m2, n=7, read-out: t1/2 (converted)): 20.8 h
- half-life ([1]; 3 mg/m2, DL3, 3 mg/m2, n=3, read-out: t1/2 (converted)): 13.6 h
- half-life ([1]; 4.5 mg/m2, DL4, 4.5 mg/m2, n=3, read-out: t1/2 (converted)): 13.8 h
- half-life ([1]; 6.75 mg/m2, DL5, 6.75 mg/m2, n=3, read-out: t1/2 (converted)): 11.5 h
- half-life ([1]; 9 mg/m2, DL6, 9 mg/m2, n=2, read-out: t1/2 (converted)): 31.4 h
- half-life ([1]; 12 mg/m2, DL7 (MTD), 12 mg/m2, n=6, read-out: t1/2 (mean half-life) (converted)): 12.6 h
- half-life ([1]; 12 mg/m2, MTD (DL7, 12 mg/m^2, n = 6), read-out: Half-life, range): 8.2 to 16 h
- half-life ([1]; 16 mg/m2, DL8, 16 mg/m2, n=7, read-out: t1/2 (converted)): 13.4 h
- AUC(0-inf) ([1]; DL1, 1 mg/m2, n=1): 880 ng·h/mL
- AUC(0-t) ([1]; DL1, 1 mg/m2, n=1): 359 ng·h/mL
- Cmax ([1]; DL1, 1 mg/m2, n=1): 46.9 ng/mL
- Tmax ([1]; DL1, 1 mg/m2, n=1): 1 h
- AUC(0-inf) ([1]; DL2, 2 mg/m2, n=7): 1060 ng·h/mL
- AUC(0-t) ([1]; DL2, 2 mg/m2, n=7): 530 ng·h/mL
- Cmax ([1]; DL2, 2 mg/m2, n=7): 64.4 ng/mL
- Tmax ([1]; DL2, 2 mg/m2, n=7): 1 h
- AUC(0-inf) ([1]; DL3, 3 mg/m2, n=3): 1580 ng·h/mL
- AUC(0-t) ([1]; DL3, 3 mg/m2, n=3): 1150 ng·h/mL
- Cmax ([1]; DL3, 3 mg/m2, n=3): 124 ng/mL
- Tmax ([1]; DL3, 3 mg/m2, n=3): 1 h
- AUC(0-inf) ([1]; DL4, 4.5 mg/m2, n=3): 1850 ng·h/mL
- AUC(0-t) ([1]; DL4, 4.5 mg/m2, n=3): 1300 ng·h/mL
- Cmax ([1]; DL4, 4.5 mg/m2, n=3): 178 ng/mL
- Tmax ([1]; DL4, 4.5 mg/m2, n=3): 1 h
- AUC(0-inf) ([1]; DL5, 6.75 mg/m2, n=3): 2510 ng·h/mL
- AUC(0-t) ([1]; DL5, 6.75 mg/m2, n=3): 1980 ng·h/mL
- Cmax ([1]; DL5, 6.75 mg/m2, n=3): 273 ng/mL
- Tmax ([1]; DL5, 6.75 mg/m2, n=3): 1 h
- AUC(0-inf) ([1]; DL6, 9 mg/m2, n=2): 7200 ng·h/mL
- AUC(0-t) ([1]; DL6, 9 mg/m2, n=2): 2970 ng·h/mL
- Cmax ([1]; DL6, 9 mg/m2, n=2): 296 ng/mL
- Tmax ([1]; DL6, 9 mg/m2, n=2): 1 h
- AUC(0-inf) ([1]; DL7 (MTD), 12 mg/m2, n=6): 5890 ng·h/mL
- AUC(0-t) ([1]; DL7 (MTD), 12 mg/m2, n=6): 4270 ng·h/mL
- Cmax ([1]; DL7 (MTD), 12 mg/m2, n=6): 523 ng/mL
- Tmax ([1]; DL7 (MTD), 12 mg/m2, n=6): 1.1 h
- AUC(0-inf) ([1]; DL8, 16 mg/m2, n=7): 8920 ng·h/mL
- AUC(0-t) ([1]; DL8, 16 mg/m2, n=7): 6170 ng·h/mL
- Cmax ([1]; DL8, 16 mg/m2, n=7): 770 ng/mL
- Tmax ([1]; DL8, 16 mg/m2, n=7): 1.1 h
- Dependence of half-life on dose ([1]; in vivo): did not vary with dose level; also recorded: half-life was independent of dose
- Systemic exposure (AUC) versus dose level ([1]; in vivo): increased linearly with dose level
